In patent US11298314B2, “Injectable composition for localized fat reduction without pain, edema, and side effects, and method for preparing same” (AMI PHARM CO., LTD., priority 2017, dated 2022):

System: sole of the rat paws
Assay: Measurement of skin lesion (erythema) on rat paw;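 also: grades − to ++++ mean no to extremely severe erythema versus before injection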
Type: in vivo, Sprague Dawley rats
Procedure, shortened: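 Male Sprague Dawley rats (6 weeks, 170–200 g) received 0.1 ml test composition or PBS injected into the paw. Paw thickness measured by caliper before, immediately after, and 1 or 2 h post-injection; sole lesions photographed and graded 0–4.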

[1] = PPC single composition 1.25% (w/v)
[2] = PPC single composition 2.50% (w/v)
[3] = PPC single composition 5.00% (w/v)
[4] = PPC single composition 7.50% (w/v)
[5] = PPC single composition 10.0% (w/v)
[6] = PPC single composition 12.5% (w/v)
[7] = PPC single composition 15.0% (w/v)

1,2-diacyl-sn-glycero-3-phosphocholine [PPC]
−: grade of skin lesion (erythema), 1 hour after administration [1] | grade of skin lesion (erythema), 2 hours after administration [1] | grade of skin lesion (erythema), Immediately after administration [1] | grade of skin lesion (erythema), 1 hour after administration [2] | grade of skin lesion (erythema), 2 hours after administration [2] | grade of skin lesion (erythema), Immediately after administration [2] | grade of skin lesion (erythema), 1 hour after administration [3] | grade of skin lesion (erythema), 2 hours after administration [3] | grade of skin lesion (erythema), Immediately after administration [3] | grade of skin lesion (erythema), 1 hour after administration [4] | grade of skin lesion (erythema), 2 hours after administration [4] | grade of skin lesion (erythema), Immediately after administration [4] | grade of skin lesion (erythema), 1 hour after administration [5] | grade of skin lesion (erythema), 2 hours after administration [5] | grade of skin lesion (erythema), Immediately after administration [5] | grade of skin lesion (erythema), 1 hour after administration [6] | grade of skin lesion (erythema), 2 hours after administration [6] | grade of skin lesion (erythema), Immediately after administration [6] | grade of skin lesion (erythema), 1 hour after administration [7] | grade of skin lesion (erythema), 2 hours after administration [7] | grade of skin lesion (erythema), Immediately after administration [7]
